According to the supplement of paper PMC10307832:

What was measured:
Experiment in all cases: relative viability (nuclei count vs DMSO), 5 days (fraction); higher = more cells survive
Avagacestat = compound: NC(=O)[C@@H](CCC(F)(F)F)N(Cc1ccc(-c2ncon2)cc1F)S(=O)(=O)c1ccc(Cl)cc1 [Avagacestat]
Summary of the method: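 Lung cancer cell lines were seeded into 1536-well plates, kept overnight at 37 °C and pinned with five library-drug doses (not always all listed) spaced by √10. After 5 days, nuclei were Hoechst-stained, imaged at 4× and counted with MetaXpress. Viability is treated-well nuclei over vehicle-well nuclei, taken as a median across plates. Plates needed control CV below 25% and at least one doubling.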

[1] = compound: NC(=O)[C@@H](CCC(F)(F)F)N(Cc1ccc(-c2ncon2)cc1F)S(=O)(=O)c1ccc(Cl)cc1 [Avagacestat] + CC(=O)c1c(C)c2cnc(Nc3ccc(N4CCNCC4)cn3)nc2n(C2CCCC2)c1=O [Palbociclib] (partner 0.5 µM)
Summary of the method: (§1)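 A single step with final 0.05% Triton X-100, 1% formaldehyde and 1 ug/ml Hoechst fixed the cells and stained nuclei 5 days after treatment. Lung cancer cell lines in 1536-well plates had been treated by pin tool the day after seeding with one drug alone or a fixed anchor-drug dose plus five library-drug doses (not always all listed) in √10 steps, and nuclei were counted on 4× images. Relative viability is the ratio of nuclei in treated wells to nuclei in vehicle wells, taken as the median of duplicate plates.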

Avagacestat + Foretinib = compound: NC(=O)[C@@H](CCC(F)(F)F)N(Cc1ccc(-c2ncon2)cc1F)S(=O)(=O)c1ccc(Cl)cc1 [Avagacestat] + COc1cc2c(Oc3ccc(NC(=O)C4(C(=O)Nc5ccc(F)cc5)CC4)cc3F)ccnc2cc1OCCCN1CCOCC1 [Foretinib] (partner 0.25 µM)
Summary of the method: as §1

Avagacestat + OSI-027 = compound: NC(=O)[C@@H](CCC(F)(F)F)N(Cc1ccc(-c2ncon2)cc1F)S(=O)(=O)c1ccc(Cl)cc1 [Avagacestat] + COc1cccc2cc(-c3nc([C@H]4CC[C@H](C(=O)O)CC4)n4ncnc(N)c34)[nH]c12 [OSI-027] (partner 0.5 µM)
Summary of the method: as §1

Cell Line	relative viability (Avagacestat; 0.08 µM)	relative viability (Avagacestat; 0.253 µM)	relative viability (Avagacestat; 0.8 µM)	relative viability (Avagacestat; 2.53 µM)	relative viability (Avagacestat; 8 µM)	relative viability ([1]; first compound 0.08 µM)	relative viability ([1]; first compound 0.253 µM)	relative viability ([1]; first compound 0.8 µM)	relative viability ([1]; first compound 2.53 µM)	relative viability ([1]; first compound 8 µM)	relative viability (Avagacestat + Foretinib; first compound 0.08 µM)	relative viability (Avagacestat + Foretinib; first compound 0.253 µM)	relative viability (Avagacestat + Foretinib; first compound 0.8 µM)	relative viability (Avagacestat + Foretinib; first compound 2.53 µM)	relative viability (Avagacestat + Foretinib; first compound 8 µM)	relative viability (Avagacestat + OSI-027; first compound 0.08 µM)	relative viability (Avagacestat + OSI-027; first compound 0.253 µM)	relative viability (Avagacestat + OSI-027; first compound 0.8 µM)	relative viability (Avagacestat + OSI-027; first compound 2.53 µM)	relative viability (Avagacestat + OSI-027; first compound 8 µM)
201T	0.995	1	1.1	0.927	0.965	0.361	0.307	0.382	0.331	0.352	1.18	1.45	1.06	0.944	1.1	0.803	0.988	0.942	0.529	0.76
A-427	1.12	1.12	1.17	1.07	1.08	0.506	0.517	0.516	0.539	0.544	1.37	1.18	1.12	1.11	1.08	0.543	0.474	0.421	0.403	0.445
ABC-1	1.1	1.25	1.26	1.14	0.877	0.846	0.542	0.67	0.654	0.522	1.16	1.06	1.15	1	1.06	0.442	0.537	0.637	0.401	0.418
BEN	1.13	1.02	1.06	0.959	0.917	0.466	0.456	0.502	0.513	0.482	0.692	0.694	0.725	0.74	0.62	0.313	0.303	0.544	0.303	0.327
CAL-12T	1.09	1.12	1.11	1.11	1.04	0.535	0.384	0.474	0.478	0.5	1.35	1.25	1.24	1.02	1.16	1.01	0.873	0.957	0.841	0.607
COR-L23	1.16	1.24	0.989	0.921	0.901	0.283	0.266	0.284	0.276	0.217	1.12	1.28	1.1	0.901	0.952	1.06	1.02	0.906	0.697	0.661
COR-L 105	0.955	1.07	0.923	0.876	0.633	0.435	0.353	0.429	0.391	0.4	1.17	1.25	1.36	0.927	0.698	0.614	0.687	0.74	0.525	0.486
Calu-6	1.15	1.22	1.13	1.07	1.04	–	–	–	–	–	1.12	0.949	0.979	0.905	0.845	–	–	–	–	–
ChaGo-K-1	1.13	0.948	0.969	0.99	0.889	1.05	1.01	0.933	0.887	0.798	0.935	1	0.856	0.825	0.786	0.659	0.655	0.6	0.456	0.451
EBC-1	1.07	1.11	1.12	0.942	0.8	–	–	–	–	–	0.114	0.113	0.123	0.11	0.107	–	–	–	–	–
EKVX	1.17	1.07	1.19	0.886	0.871	0.392	0.374	0.405	0.365	0.293	0.859	0.742	1.08	0.798	0.795	0.675	0.687	0.72	0.461	0.659
EMC-BAC-2	1.22	1.08	1.15	1.08	1.1	0.539	0.577	0.556	0.52	0.543	1.06	1.09	1.06	0.904	0.968	0.364	0.445	0.429	0.396	0.364
EPLC-272H	0.989	0.922	1.07	1	0.911	0.368	0.344	0.327	0.32	0.291	0.72	0.662	0.825	0.602	0.661	0.274	0.259	0.326	0.226	0.28
H3255	1.04	1.06	1.08	1.01	0.988	0.312	0.361	0.331	0.373	0.401	0.857	0.913	0.934	0.891	0.949	0.642	0.74	0.828	0.625	0.621
HARA	0.891	1.17	1.06	0.963	0.989	0.26	0.237	0.248	0.263	0.24	1.1	1.39	0.863	0.867	0.77	0.603	0.57	0.484	0.383	0.49
HCC-15	1.17	1.19	1.13	1	0.946	0.906	1.01	0.78	0.68	0.694	1.14	1.16	1.15	0.958	1.01	0.757	0.881	0.776	0.644	0.717
HCC-44	0.999	0.999	0.997	0.968	0.935	0.976	0.997	0.983	1.04	1.01	–	–	–	–	–	0.474	0.457	0.673	0.528	0.499
HCC-78	1.07	1.01	1.18	0.801	0.915	0.493	0.488	0.511	0.478	0.441	0.588	0.523	0.542	0.492	0.54	0.381	0.4	0.349	0.373	0.401

Cell Line	relative viability (Avagacestat; 0.08 µM)	relative viability (Avagacestat; 0.253 µM)	relative viability (Avagacestat; 0.8 µM)	relative viability (Avagacestat; 2.53 µM)	relative viability (Avagacestat; 8 µM)	relative viability ([1]; first compound 0.08 µM)	relative viability ([1]; first compound 0.253 µM)	relative viability ([1]; first compound 0.8 µM)	relative viability ([1]; first compound 2.53 µM)	relative viability ([1]; first compound 8 µM)	relative viability (Avagacestat + Foretinib; first compound 0.08 µM)	relative viability (Avagacestat + Foretinib; first compound 0.253 µM)	relative viability (Avagacestat + Foretinib; first compound 0.8 µM)	relative viability (Avagacestat + Foretinib; first compound 2.53 µM)	relative viability (Avagacestat + Foretinib; first compound 8 µM)	relative viability (Avagacestat + OSI-027; first compound 0.08 µM)	relative viability (Avagacestat + OSI-027; first compound 0.253 µM)	relative viability (Avagacestat + OSI-027; first compound 0.8 µM)	relative viability (Avagacestat + OSI-027; first compound 2.53 µM)	relative viability (Avagacestat + OSI-027; first compound 8 µM)
HCC-366	1.04	1.17	1.07	1.11	1.11	0.355	0.34	0.465	0.332	0.333	1.01	1.05	0.944	1.01	1.04	1.07	1.49	1.01	0.772	0.872
HCC-827	1.1	1.09	1.11	1.09	1.11	0.468	0.478	0.503	0.442	0.465	1.08	1.12	1.15	1	1.03	0.892	0.688	0.818	0.668	0.703
HOP-62	1.15	1.17	1.03	0.991	0.895	0.461	0.482	0.412	0.458	0.366	1.29	1.2	1.17	0.948	0.996	1.16	0.895	0.737	0.609	0.63
LC-2-ad	1.02	0.985	1.11	1.03	0.96	0.483	0.472	0.529	0.439	0.381	1	1.03	0.914	0.854	0.868	0.796	0.898	0.855	0.795	0.739
LCLC-97TM1	1.08	1.09	1.2	1	0.829	0.294	0.264	0.312	0.185	0.206	0.977	0.916	0.894	0.92	0.944	0.562	0.674	0.424	0.694	0.518
LCLC-103H	0.994	0.928	0.921	0.929	0.941	0.54	0.444	0.473	0.501	0.446	0.803	0.849	0.757	0.56	0.784	0.488	0.531	0.438	0.409	0.406
LK-2	1.28	1.22	0.784	0.604	0.874	0.949	0.818	0.64	0.542	0.824	1.72	1.7	1.07	1.07	0.93	0.189	0.206	0.162	0.181	0.212
LOU-NH91	1.05	0.881	1.14	0.917	0.968	0.533	0.482	0.574	0.52	0.525	0.925	0.916	0.974	0.886	0.893	0.688	0.656	0.789	0.723	0.716
LU99A	0.977	0.997	1.12	0.907	0.986	0.407	0.429	0.472	0.414	0.366	0.807	0.875	0.925	0.837	0.786	0.285	0.28	0.278	0.286	0.266
LXF-289	0.995	1.05	1.05	0.994	0.975	0.624	0.613	0.612	0.578	0.582	1.04	0.957	0.992	0.982	0.893	0.817	0.757	0.703	0.673	0.804
NCI-H23	1.01	1.08	1.17	1.03	0.944	0.515	0.566	0.505	0.44	0.572	1.11	1.17	0.925	1.14	0.93	0.778	0.619	0.8	0.627	0.537
NCI-H596	1.06	0.986	0.985	1.04	0.936	–	–	–	–	–	1	0.831	0.85	0.809	0.84	0.81	0.814	0.688	0.734	0.593
NCI-H1299	1.03	1.11	1.06	1.04	1	–	–	–	–	–	1.07	1.12	1.15	1.09	1.12	–	–	–	–	–
NCI-H1563	0.984	0.986	0.968	0.798	0.813	–	–	–	–	–	1.1	0.999	0.879	0.803	0.842	0.829	0.776	0.736	0.735	0.719
NCI-H1648	0.583	0.705	0.513	0.55	0.457	0.237	0.271	0.289	0.256	0.284	–	–	–	–	–	0.266	0.273	0.271	0.255	0.232
NCI-H1703	1.24	1.03	0.975	0.955	0.873	–	–	–	–	–	0.315	0.318	0.384	0.338	0.308	–	–	–	–	–
NCI-H1792	1.15	0.866	1.36	0.859	0.761	0.817	–	0.751	–	0.612	–	–	–	–	–	1.03	–	0.628	–	0.677
